PMC8162404, “Proteomimetic surface fragments distinguish targets by function” (Chemical Science, 2020)
pKd: −log10 of the molar value. Where two headings read alike, the source gives them in different places.

Molecular target: T1, Gal-1 (Homo sapiens, UniProt P09382)
T1 construct: made in house; host or cells: E. coli BL21(DE3)
Assay: Pull-down assay with immobilized protein and LSM libraries
Format: binding
Description: Pull-down assays with immobilized test proteins and foldameric LSM libraries were carried out. Proteins were equilibrated with LSM probes, and equilibrium bound fractions (FB) were determined from the unbound fractions measured by HPLC-MS methods. Hits were corrected with background binding of the resin. The protocol allowed all binding events to equilibrate irrespective of affinity, specificity, and binding kinetics. This was essential to judge overall druggability and promiscuity. Importantly, the concentration of protein and the total concentration of foldameric LSMs were equimolar, which minimized competition between the probes. This experimental setup approximated independent binding of individual library members. Results were visualized as heat maps of dissociation constants (Fig. 3).
Pull-down assay and data analysis
Pull-down assay. LSM sublibraries were screened separately as previously described.(2) Experiments were performed in the following buffers: (i) 20 mM pH 7.4 HEPES, 150 mM NaCl, 5 mM CaCl2 for CaM; (ii) 50 mM pH 7.4 HEPES, 150 mM NaCl, 1 mM TCEP, 1 mM CaCl2 for S100 proteins; (iii) 20 mM pH 7.4 HEPES, 150 mM NaCl, 1 mM TCEP for Gal-1 and (iv) 20 mM pH 7.4 HEPES, 150 mM NaCl for RecQ-WH. Assays were performed in paper filter spin cups (Thermo Scientific) with sample volumes of 100 µl. Hexahistidine-tagged proteins were immobilized on previously washed Co-NTA resin (TALON, Takara Bio USA, Inc., Mountain View, CA) in 64 µM final concentration. LSM sublibrary was added, in which each of the 64 library members were used at a concentration of 1 µM. Samples were incubated at room temperature for 30 min with shaking at 100 rpm. Then, samples were centrifuged at 1000 rpm for 2 min and washed with 100 µl pull-down buffer to remove unbound compounds.
The control experiments were performed using the same compounds and the resin but without the immobilized protein. In case of competitive assays, competitor peptides were added to LSM sublibrary samples in 200 µM final concentration. In the case of Gal-1, lactose (competitor) was used in a concentration of 10 mM. Experiments were performed at least twice. Mean […]
LC-MS methods and parameters. HPLC/ESI-MS analysis was used to characterize the samples from the pull-down assay. LC-MS analysis was performed with a Thermo Scientific Dionex UltiMate 3000 HPLC system interfaced to an LTQ ion trap mass spectrometer (Thermo Electron Corp., San Jose, CA, USA). Samples were injected onto an Aeris Widepore XB-C18 (250 x 4.6 mm) analytical HPLC column using gradient elution 5-80 % solution B during 25 minutes. For pull-down samples, eluent composition was 0.1% acetic acid in distilled water (Solution A) and 0.1% acetic acid in acetonitrile (solution B). Mass spectra were acquired in full scan mode from 200 to 2000 m/z range. For overlapping peaks, selective reaction monitoring (SRM) was […]
MS data analysis. Thermo Xcalibur 2.2 software was used for peak identification and integration. The majority of the foldameric fragments could be resolved independently via HPLC-MS/MS measurements based on molecular weight, MS fragmentation pattern and retention time. Peaks of some foldamers with β3-hIle or β3-hLeu in position R2 could not be resolved, these were integrated and averaged. In the processing method, each sample component was associated to a chromatographic peak based on previously identified mass (m/z) and retention time (ref (2) and Table S7-10). Using ICIS peak detection algorithm, the general detection and integration criteria were: smoothing points: 5, baseline window: 80, area noise factor: 5, peak noise factor: 10. Using these processing setups, all raw data files were reprocessed together and analyzed. Errors in peak identification during the automatic processing were corrected manually.
Calculation of the discussed parameters
1. Bound fractions (FB.) were calculated from the HPLC-MS intensity loss of the LSM probes compared to the control where no protein was immobilized to the resin: […]

[1] = read-out: KD estimated by pull-down experiments
[2] = H12 library, 1:1 binding assumed, read-out: Surface mapping KD (apparent)

T1 sequence (P09382 whole entry): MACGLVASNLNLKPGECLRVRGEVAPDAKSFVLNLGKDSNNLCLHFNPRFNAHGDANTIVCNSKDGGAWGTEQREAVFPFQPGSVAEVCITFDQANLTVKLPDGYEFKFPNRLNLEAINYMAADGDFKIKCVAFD

Compound	pKd [2]	pKd [1]
NC(=O)[C@H]1CCCC[C@@H]1NC(=O)C[C@H](Cc1c[nH]c2ccccc12)NC(=O)[C@H]1CCCC[C@@H]1NC(=O)[C@H]1CCCC[C@@H]1NC(=O)C[C@H](Cc1c[nH]c2ccccc12)NC(=O)[C@H]1CCCC[C@@H]1N [1b]	–	4.40 to 4.52
NC(=O)[C@H]1CCCC[C@@H]1NC(=O)C[C@H](Cc1ccccc1)NC(=O)[C@H]1CCCC[C@@H]1NC(=O)[C@H]1CCCC[C@@H]1NC(=O)C[C@H](Cc1c[nH]c2ccccc12)NC(=O)[C@H]1CCCC[C@@H]1N [12b]	–	4.40 to 4.52
C[C@@H](CC(=O)N[C@H]1CCC[C@@H]1C(=O)N[C@H]1CCC[C@@H]1C(=O)N[C@@H](CC(=O)O)CC(=O)N[C@H]1CCC[C@@H]1C(=O)N[C@H]1CCC[C@@H]1C(N)=O)NC(=O)[C@H]1CCC[C@@H]1NC(=O)[C@H]1CCC[C@@H]1N [H12 AD]	3.36	–
C[C@@H](CC(=O)N[C@H]1CCC[C@@H]1C(=O)N[C@H]1CCC[C@@H]1C(=O)N[C@@H](CCC(=O)O)CC(=O)N[C@H]1CCC[C@@H]1C(=O)N[C@H]1CCC[C@@H]1C(N)=O)NC(=O)[C@H]1CCC[C@@H]1NC(=O)[C@H]1CCC[C@@H]1N [H12 AE]	3.41	–
C[C@@H](CC(=O)N[C@H]1CCC[C@@H]1C(=O)N[C@H]1CCC[C@@H]1C(=O)N[C@@H](CCC(N)=O)CC(=O)N[C@H]1CCC[C@@H]1C(=O)N[C@H]1CCC[C@@H]1C(N)=O)NC(=O)[C@H]1CCC[C@@H]1NC(=O)[C@H]1CCC[C@@H]1N [H12 AQ]	3.34	–
CC(C)[C@@H](CC(=O)N[C@H]1CCC[C@@H]1C(=O)N[C@H]1CCC[C@@H]1C(N)=O)NC(=O)[C@H]1CCC[C@@H]1NC(=O)[C@H]1CCC[C@@H]1NC(=O)C[C@H](C)NC(=O)[C@H]1CCC[C@@H]1NC(=O)[C@H]1CCC[C@@H]1N [H12 AV]	3.31	–

Further lines, with some results ahead:

pKd [2]	Compound	pKd [1]
3.48	C[C@@H](CC(=O)N[C@H]1CCC[C@@H]1C(=O)N[C@H]1CCC[C@@H]1C(=O)N[C@@H](CC(N)=O)CC(=O)N[C@H]1CCC[C@@H]1C(=O)N[C@H]1CCC[C@@H]1C(N)=O)NC(=O)[C@H]1CCC[C@@H]1NC(=O)[C@H]1CCC[C@@H]1N [H12 AN]	–
3.51	C[C@@H](CC(=O)N[C@H]1CCC[C@@H]1C(=O)N[C@H]1CCC[C@@H]1C(=O)N[C@@H](CO)CC(=O)N[C@H]1CCC[C@@H]1C(=O)N[C@H]1CCC[C@@H]1C(N)=O)NC(=O)[C@H]1CCC[C@@H]1NC(=O)[C@H]1CCC[C@@H]1N [H12 AS]	–
3.61	C[C@@H](CC(=O)N[C@H]1CCC[C@@H]1C(=O)N[C@H]1CCC[C@@H]1C(N)=O)NC(=O)[C@H]1CCC[C@@H]1NC(=O)[C@H]1CCC[C@@H]1NC(=O)C[C@H](CC(=O)O)NC(=O)[C@H]1CCC[C@@H]1NC(=O)[C@H]1CCC[C@@H]1N [H12 DA]	–
3.43	NC(=O)[C@H]1CCC[C@@H]1NC(=O)[C@H]1CCC[C@@H]1NC(=O)C[C@H](CC(=O)O)NC(=O)[C@H]1CCC[C@@H]1NC(=O)[C@H]1CCC[C@@H]1NC(=O)C[C@H](CC(=O)O)NC(=O)[C@H]1CCC[C@@H]1NC(=O)[C@H]1CCC[C@@H]1N [H12 DD]	–
3.62	NC(=O)[C@H]1CCC[C@@H]1NC(=O)[C@H]1CCC[C@@H]1NC(=O)C[C@H](CCC(=O)O)NC(=O)[C@H]1CCC[C@@H]1NC(=O)[C@H]1CCC[C@@H]1NC(=O)C[C@H](CC(=O)O)NC(=O)[C@H]1CCC[C@@H]1NC(=O)[C@H]1CCC[C@@H]1N [H12 DE]	–
3.60	NC(=O)[C@H]1CCC[C@@H]1NC(=O)[C@H]1CCC[C@@H]1NC(=O)C[C@H](Cc1ccccc1)NC(=O)[C@H]1CCC[C@@H]1NC(=O)[C@H]1CCC[C@@H]1NC(=O)C[C@H](CC(=O)O)NC(=O)[C@H]1CCC[C@@H]1NC(=O)[C@H]1CCC[C@@H]1N [H12 DF]	–
3.76	NCCCC[C@@H](CC(=O)N[C@H]1CCC[C@@H]1C(=O)N[C@H]1CCC[C@@H]1C(N)=O)NC(=O)[C@H]1CCC[C@@H]1NC(=O)[C@H]1CCC[C@@H]1NC(=O)C[C@H](CC(=O)O)NC(=O)[C@H]1CCC[C@@H]1NC(=O)[C@H]1CCC[C@@H]1N [H12 DK]	–
3.66	CSCC[C@@H](CC(=O)N[C@H]1CCC[C@@H]1C(=O)N[C@H]1CCC[C@@H]1C(N)=O)NC(=O)[C@H]1CCC[C@@H]1NC(=O)[C@H]1CCC[C@@H]1NC(=O)C[C@H](CC(=O)O)NC(=O)[C@H]1CCC[C@@H]1NC(=O)[C@H]1CCC[C@@H]1N [H12 DM]	–
